In experiment [1] the target is Protein cereblon/Histone acetyltransferase p300 (Homo sapiens) (UniProt Q09472+Q96SW2). The experiment in a line: PROTAC activity at CRBN/p300 in human MV4-11 cells assessed as p300 degradation at 10 to 50 nM incubated for 24 hrs by Western blotting analysis. Format: cell-based. As to conditions: dose 10-50 nM. A general note: A western blot detects proteins with antibodies after separation by electrophoresis.

A further experiment deals with MV4-11. The experiment in a line: Antiproliferative activity against human MV4-11 cells incubated for 120 hrs by Cell-Titer Glo assay. The note with it: MV4-11, 120 h.

pIC50: −log10 of the molar value. Activity calls are given as the source filed them. No cut-off for these calls is given here.

Chain of Protein cereblon/Histone acetyltransferase p300 (Homo sapiens) (Q09472 2-2414 limits assumed): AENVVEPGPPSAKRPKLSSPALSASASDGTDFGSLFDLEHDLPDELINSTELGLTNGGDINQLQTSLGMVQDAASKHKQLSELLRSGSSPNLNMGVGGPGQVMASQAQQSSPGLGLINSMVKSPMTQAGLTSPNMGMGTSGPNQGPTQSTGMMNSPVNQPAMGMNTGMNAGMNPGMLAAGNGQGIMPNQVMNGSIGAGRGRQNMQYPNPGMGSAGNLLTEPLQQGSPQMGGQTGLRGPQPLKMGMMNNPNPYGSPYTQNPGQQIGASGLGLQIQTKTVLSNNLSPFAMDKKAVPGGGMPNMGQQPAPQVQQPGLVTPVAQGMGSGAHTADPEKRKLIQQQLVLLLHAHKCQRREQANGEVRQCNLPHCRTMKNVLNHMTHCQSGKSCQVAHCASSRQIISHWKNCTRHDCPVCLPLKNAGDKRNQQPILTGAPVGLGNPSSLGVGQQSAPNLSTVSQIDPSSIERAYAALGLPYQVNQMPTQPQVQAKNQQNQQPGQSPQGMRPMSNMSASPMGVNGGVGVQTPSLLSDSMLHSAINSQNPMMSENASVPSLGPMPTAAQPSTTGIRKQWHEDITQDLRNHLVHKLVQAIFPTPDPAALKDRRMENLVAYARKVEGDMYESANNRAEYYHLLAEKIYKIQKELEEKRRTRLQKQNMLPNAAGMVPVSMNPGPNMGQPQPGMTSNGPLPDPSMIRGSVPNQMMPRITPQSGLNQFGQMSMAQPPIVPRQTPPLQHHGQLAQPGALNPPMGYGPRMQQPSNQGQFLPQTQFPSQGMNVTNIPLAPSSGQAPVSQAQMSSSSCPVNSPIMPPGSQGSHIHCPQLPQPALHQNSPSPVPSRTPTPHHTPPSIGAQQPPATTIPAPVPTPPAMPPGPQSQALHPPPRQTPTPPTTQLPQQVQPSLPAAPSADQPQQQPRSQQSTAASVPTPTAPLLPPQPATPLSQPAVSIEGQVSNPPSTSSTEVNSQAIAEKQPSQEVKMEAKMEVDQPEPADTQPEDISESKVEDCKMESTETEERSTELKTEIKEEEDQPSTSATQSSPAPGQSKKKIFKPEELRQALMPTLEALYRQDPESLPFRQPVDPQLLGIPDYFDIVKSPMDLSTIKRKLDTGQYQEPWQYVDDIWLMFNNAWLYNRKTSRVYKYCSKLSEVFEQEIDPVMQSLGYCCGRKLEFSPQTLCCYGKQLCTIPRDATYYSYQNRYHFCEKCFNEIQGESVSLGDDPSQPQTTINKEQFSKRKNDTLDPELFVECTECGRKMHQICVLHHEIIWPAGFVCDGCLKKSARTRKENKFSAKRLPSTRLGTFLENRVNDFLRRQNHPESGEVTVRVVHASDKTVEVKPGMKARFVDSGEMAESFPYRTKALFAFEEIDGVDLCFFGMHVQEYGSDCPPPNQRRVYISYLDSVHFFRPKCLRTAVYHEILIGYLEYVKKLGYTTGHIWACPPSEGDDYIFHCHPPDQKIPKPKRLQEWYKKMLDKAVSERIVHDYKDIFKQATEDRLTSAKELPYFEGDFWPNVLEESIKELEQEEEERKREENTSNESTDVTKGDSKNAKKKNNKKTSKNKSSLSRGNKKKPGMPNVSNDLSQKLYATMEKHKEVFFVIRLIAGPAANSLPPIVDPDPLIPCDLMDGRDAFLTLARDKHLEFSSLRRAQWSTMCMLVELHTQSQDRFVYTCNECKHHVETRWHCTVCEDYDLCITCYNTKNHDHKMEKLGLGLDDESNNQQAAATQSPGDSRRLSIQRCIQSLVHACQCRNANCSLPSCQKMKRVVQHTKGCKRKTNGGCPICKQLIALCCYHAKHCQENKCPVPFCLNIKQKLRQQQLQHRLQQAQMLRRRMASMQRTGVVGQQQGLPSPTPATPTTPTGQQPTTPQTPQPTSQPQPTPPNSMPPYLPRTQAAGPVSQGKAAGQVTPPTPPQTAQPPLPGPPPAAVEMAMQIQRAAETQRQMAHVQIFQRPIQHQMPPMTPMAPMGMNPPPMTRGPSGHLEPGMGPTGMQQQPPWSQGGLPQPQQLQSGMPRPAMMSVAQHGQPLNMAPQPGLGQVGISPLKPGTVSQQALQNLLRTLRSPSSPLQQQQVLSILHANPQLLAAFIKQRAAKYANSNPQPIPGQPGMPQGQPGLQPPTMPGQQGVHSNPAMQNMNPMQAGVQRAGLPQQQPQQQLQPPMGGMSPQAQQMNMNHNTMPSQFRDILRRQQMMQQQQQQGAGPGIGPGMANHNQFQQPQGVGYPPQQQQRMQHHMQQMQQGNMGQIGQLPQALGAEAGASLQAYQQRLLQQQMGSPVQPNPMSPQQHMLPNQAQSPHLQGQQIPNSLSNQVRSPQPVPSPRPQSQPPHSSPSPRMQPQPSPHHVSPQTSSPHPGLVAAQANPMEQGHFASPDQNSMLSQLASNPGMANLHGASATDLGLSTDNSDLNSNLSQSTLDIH
Chain of Protein cereblon/Histone acetyltransferase p300 (Homo sapiens) (Q96SW2 whole entry partner): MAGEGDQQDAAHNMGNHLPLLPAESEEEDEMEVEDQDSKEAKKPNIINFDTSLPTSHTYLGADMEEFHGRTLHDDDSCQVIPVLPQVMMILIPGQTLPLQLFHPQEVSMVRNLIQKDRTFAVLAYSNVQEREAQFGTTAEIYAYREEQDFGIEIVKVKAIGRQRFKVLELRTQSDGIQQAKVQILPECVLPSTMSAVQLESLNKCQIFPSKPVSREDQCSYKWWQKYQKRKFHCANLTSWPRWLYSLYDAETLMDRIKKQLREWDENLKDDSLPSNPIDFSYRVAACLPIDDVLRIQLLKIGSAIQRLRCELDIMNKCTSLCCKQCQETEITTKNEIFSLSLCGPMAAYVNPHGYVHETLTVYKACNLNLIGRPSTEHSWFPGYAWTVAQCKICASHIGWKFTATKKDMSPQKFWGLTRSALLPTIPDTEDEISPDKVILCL

As to `Cc1noc(C)c1-c1ccc2c(c1)nc([C@@H]1CCCC(=O)N1c1ccc(F)c(F)c1)n2C1CCN(CC(=O)Nc2ccc(CCNc3cccc4c3C(=O)N(C3CCC(=O)NC3=O)C4=O)cc2)CC1` (some centres not stated), the result in experiment [1] was Active. Further, the pIC50 in the experiment on MV4-11 is 6.88.
With `Cc1noc(C)c1-c1ccc2c(c1)nc([C@@H]1CCCC(=O)N1c1ccc(F)c(F)c1)n2C1CCN(CC(=O)NCCOCCNc2ccc3c(c2)C(=O)N(C2CCC(=O)NC2=O)C3=O)CC1` (some centres not stated), in experiment [1], the result was inactive. Also, the pIC50 with MV4-11 was 5.77.
As to `Cc1noc(C)c1-c1ccc2c(c1)nc([C@@H]1CCCC(=O)N1c1ccc(F)c(F)c1)n2C1CCN(CC(=O)NCCCCCCCCNc2cccc3c2C(=O)N(C2CCC(=O)NC2=O)C3=O)CC1` (some centres not stated), the result in experiment [1] was Active. The compound also gave a pIC50 in the experiment on MV4-11 of 6.66.
As to `Cc1noc(C)c1-c1ccc2c(c1)nc([C@@H]1CCCC(=O)N1c1ccc(F)c(F)c1)n2C1CCN(CC(=O)NCCC#Cc2cccc3c2C(=O)N(C2CCC(=O)NC2=O)C3=O)CC1` (some centres not stated), the pIC50 in the experiment with MV4-11 was 5.74.
On the same count and under the same terms, as for `Cc1noc(C)c1-c1ccc2c(c1)nc([C@@H]1CCCC(=O)N1c1ccc(F)c(F)c1)n2C1CCN(CC(=O)NCCOCCOCCOCCNc2cccc3c2C(=O)N(C2CCC(=O)NC2=O)C3=O)CC1` (some centres not stated), the figure is 5.70; as for `Cc1noc(C)c1-c1ccc2c(c1)nc([C@@H]1CCCC(=O)N1c1ccc(F)c(F)c1)n2C1CCN(CC(=O)NCCCC#Cc2cccc3c2C(=O)N(C2CCC(=O)NC2=O)C3=O)CC1` (some centres not stated), 5.76; as for `Cc1noc(C)c1-c1ccc2c(c1)nc([C@@H]1CCCC(=O)N1c1ccc(F)c(F)c1)n2C1CCN(CC(=O)NCCOCCNc2cccc3c2C(=O)N(C2CCC(=O)NC2=O)C3=O)CC1` (some centres not stated), 5.72.
For the compound `Cc1noc(C)c1-c1ccc2c(c1)nc([C@@H]1CCCC(=O)N1c1ccc(F)c(F)c1)n2C1CCN(CC(=O)NCCCCCCCNc2cccc3c2C(=O)N(C2CCC(=O)NC2=O)C3=O)CC1` (some centres not stated), the result in experiment [1] was Active. In the experiment with MV4-11, this compound gave a pIC50 of 6.28.
As for `Cc1noc(C)c1-c1ccc2c(c1)nc([C@@H]1CCCC(=O)N1c1ccc(F)c(F)c1)n2C1CCN(CC(=O)NCCOCCOCCNc2ccc3c(c2)C(=O)N(C2CCC(=O)NC2=O)C3=O)CC1` (some centres not stated), the result in experiment [1] was inactive. Further, the pIC50 with MV4-11 is 5.22.
The compound `Cc1noc(C)c1-c1ccc2c(c1)nc([C@@H]1CCCC(=O)N1c1ccc(F)c(F)c1)n2C1CCN(C)CC1` gave a pIC50 with MV4-11 of 6.78.
Consider `Cc1noc(C)c1-c1ccc2c(c1)nc([C@@H]1CCCC(=O)N1c1ccc(F)c(F)c1)n2C1CCN(CC(=O)NCCCCNc2ccc3c(c2)C(=O)N(C2CCC(=O)NC2=O)C3=O)CC1` (some centres not stated), for which the result in experiment [1] was inactive. In the experiment on MV4-11, this compound showed a pIC50 of 5.66.
With `Cc1noc(C)c1-c1ccc2c(c1)nc([C@@H]1CCCC(=O)N1c1ccc(F)c(F)c1)n2C1CCN(CC(=O)N2CCC(CN3CCN(c4cccc5c4C(=O)N(C4CCC(=O)NC4=O)C5=O)CC3)CC2)CC1` (some centres not stated), the result in experiment [1] was inactive. Besides, the pIC50 in the experiment with MV4-11 was 6.58.
Regarding `Cc1noc(C)c1-c1ccc2c(c1)nc([C@@H]1CCCC(=O)N1c1ccc(F)c(F)c1)n2C1CCN(CC(=O)NCC#Cc2cccc3c2C(=O)N(C2CCC(=O)NC2=O)C3=O)CC1` (some centres not stated), in the experiment with MV4-11, the pIC50 was 5.94.
In the experiment with MV4-11, `Cc1noc(C)c1-c1ccc2c(c1)nc([C@@H]1CCCC(=O)N1c1ccc(F)c(F)c1)n2C1CCN(CC(=O)NCCOCCOCCNc2cccc3c2C(=O)N(C2CCC(=O)NC2=O)C3=O)CC1` (some centres not stated) had a pIC50 of 5.78.
`Cc1noc(C)c1-c1ccc2c(c1)nc([C@@H]1CCCC(=O)N1c1ccc(F)c(F)c1)n2C1CCN(CC(=O)NCCCCCNc2cccc3c2C(=O)N(C2CCC(=O)NC2=O)C3=O)CC1` (some centres not stated): in experiment [1], the outcome was Active. Also, in the experiment with MV4-11, the pIC50 is 6.33.
In the case of `Cc1noc(C)c1-c1ccc2c(c1)nc([C@@H]1CCCC(=O)N1c1ccc(F)c(F)c1)n2C1CCN(CC(=O)Nc2ccc(C3CCN(c4cccc5c4C(=O)N(C4CCC(=O)NC4=O)C5=O)CC3)cc2)CC1` (some centres not stated), the outcome in experiment [1] was Active. Besides, in the experiment on MV4-11, the pIC50 was 7.52.
For `Cc1noc(C)c1-c1ccc2c(c1)nc([C@@H]1CCCC(=O)N1c1ccc(F)c(F)c1)n2C1CCN(CC(=O)N2CCN(CCNc3cccc4c3C(=O)N(C3CCC(=O)NC3=O)C4=O)CC2)CC1` (some centres not stated), in that order: “inactive” and 6.65.
Consider `Cc1noc(C)c1-c1ccc2c(c1)nc([C@@H]1CCCC(=O)N1c1ccc(F)c(F)c1)n2C1CCN(CC(=O)N2CCC(N3CCC(Nc4cccc5c4C(=O)N(C4CCC(=O)NC4=O)C5=O)CC3)CC2)CC1` (some centres not stated), for which, in the experiment with MV4-11, the pIC50 was 6.95.
With `Cc1noc(C)c1-c1ccc2c(c1)nc([C@@H]1CCCC(=O)N1c1ccc(F)c(F)c1)n2C1CCN(CC(=O)N2CCN(c3cccc4c3C(=O)N(C3CCC(=O)NC3=O)C4=O)CC2)CC1` (some centres not stated), the negative logarithm of the IC50 (pIC50) in the experiment with MV4-11 is 5.77.
Take `Cc1noc(C)c1-c1ccc2c(c1)nc([C@@H]1CCCC(=O)N1c1ccc(F)c(F)c1)n2C1CCN(CC(=O)Nc2ccc(CNc3cccc4c3C(=O)N(C3CCC(=O)NC3=O)C4=O)cc2)CC1` (some centres not stated): the outcome in experiment [1] was Active. This compound gave a negative-log IC50 (pIC50) with MV4-11 of 7.07.
For the compound `Cc1noc(C)c1-c1ccc2c(c1)nc([C@@H]1CCCC(=O)N1c1ccc(F)c(F)c1)n2C1CCN(CC(=O)NCCNc2ccc3c(c2)C(=O)N(C2CCC(=O)NC2=O)C3=O)CC1` (some centres not stated), in experiment [1], the result was inactive. The pIC50 with MV4-11 is 5.74.
In the experiment on MV4-11, `Cc1noc(C)c1-c1ccc2c(c1)nc([C@@H]1CCCC(=O)N1c1ccc(F)c(F)c1)n2C1CCN(CC(=O)NCC2CCN(c3cccc4c3C(=O)N(C3CCC(=O)NC3=O)C4=O)CC2)CC1` (some centres not stated) had a pIC50 of 6.01.
`Cc1noc(C)c1-c1ccc2c(c1)nc([C@@H]1CCCC(=O)N1c1ccc(F)c(F)c1)n2C1CCN(CC(=O)NCCCCCCCCCCNc2cccc3c2C(=O)N(C2CCC(=O)NC2=O)C3=O)CC1` (some centres not stated): the result in experiment [1] was Active. Also, the pIC50 in the experiment with MV4-11 is 6.22.
As for `Cc1noc(C)c1-c1ccc2c(c1)nc([C@@H]1CCCC(=O)N1c1ccc(F)c(F)c1)n2C1CCN(CC(=O)NCCCNc2ccc3c(c2)C(=O)N(C2CCC(=O)NC2=O)C3=O)CC1` (some centres not stated), the outcome in experiment [1] was inactive. In addition, in the experiment on MV4-11, the pIC50 was 5.58.
For `Cc1noc(C)c1-c1ccc2c(c1)nc([C@@H]1CCCC(=O)N1c1ccc(F)c(F)c1)n2C1CCN(CC(=O)NCCCCCNc2ccc3c(c2)C(=O)N(C2CCC(=O)NC2=O)C3=O)CC1` (some centres not stated), the outcome in experiment [1] was inactive. In addition, in the experiment with MV4-11, the pIC50 is 6.00.
For `Cc1noc(C)c1-c1ccc2c(c1)nc([C@@H]1CCCC(=O)N1c1ccc(F)c(F)c1)n2C1CCN(CC(=O)NCCCCCCNc2cccc3c2C(=O)N(C2CCC(=O)NC2=O)C3=O)CC1` (some centres not stated), the outcome in experiment [1] was Active. In the experiment with MV4-11, this compound had a pIC50 of 6.39.
Turning to `Cc1noc(C)c1-c1ccc2c(c1)nc([C@@H]1CCCC(=O)N1c1ccc(F)c(F)c1)n2C1CCN(CC(=O)NC2CCN(c3cccc4c3C(=O)N(C3CCC(=O)NC3=O)C4=O)CC2)CC1` (some centres not stated), the pIC50 in the experiment with MV4-11 is 5.76.
The compound `Cc1noc(C)c1-c1ccc2c(c1)nc([C@@H]1CCCC(=O)N1c1ccc(F)c(F)c1)n2C1CCN(CC(=O)NCCC2CCN(c3cccc4c3C(=O)N(C3CCC(=O)NC3=O)C4=O)CC2)CC1` (some centres not stated) had a pIC50 with MV4-11 of 5.93.
For the compound `Cc1noc(C)c1-c1ccc2c(c1)nc([C@@H]1CCCC(=O)N1c1ccc(F)c(F)c1)n2C1CCN(CC(=O)NCCCCCCNc2ccc3c(c2)C(=O)N(C2CCC(=O)NC2=O)C3=O)CC1` (some centres not stated), in experiment [1], the result was inactive. The pIC50 with MV4-11 was 5.99.
Compound `Cc1noc(C)c1-c1ccc2c(c1)nc([C@@H]1CCCC(=O)N1c1ccc(F)c(F)c1)n2C1CCN(CC(=O)N2CCC(Nc3cccc4c3C(=O)N(C3C(=O)CCNC3=O)C4=O)CC2)CC1` (some centres not stated) had a pIC50 in the experiment on MV4-11 of 5.75.

A word on the pIC50: it is the IC50 on a negative log10 scale, so that one unit is a factor of ten. The low end stands for a high IC50, the high end for a low IC50.
